Data as given in patent EP1073651B1, “INDOLYL DERIVATIVES AS SEROTONERGIC AGENTS” (Wyeth, priority 1998, dated 1999).
Read-outs that look alike come from different tables or passages of the source.

Target: T1, serotonin transporter (Rattus norvegicus, UniProt P31652)
T1 construct: from tissue; host or cells: frontal cortex membranes of male Sprague-Dawley rats
Assay: Displacement of specifically bound 3H-paroxetine from rat cortical membranes (affinity for the serotonin transporter)
Type: binding
Procedure: The affinity of drugs for the serotonin transporter was determined by assessing the ability of agents to displace specifically bound 3H-paroxetine binding from rat cortical membranes. […] Briefly, frontal cortical membranes prepared from male S.D. rats were incubated with ^3H-paroxetine (0.1 nM) for 60 min at 25°C. All tubes also contained either vehicle, test compound (one to eight concentrations), or a saturating concentration of fluoxetine (10 µM) to define […]. All reactions are terminated by the addition of ice cold Tris buffer followed by rapid filtration using a Tom Tech filtration device to separate bound from free ^3H-paroxetine. […] Nonspecific binding was determined using fluoxetine.

[1] = compounds of formula 1, frontal cortical membranes from male S.D. rats, 3H-paroxetine 0.1 nM, 60 min at 25°C, Ki from IC50 by Cheng and Prusoff, read-out: Inhibition of [3H]-Paroxetine binding Ki

T1 sequence (P31652 whole entry): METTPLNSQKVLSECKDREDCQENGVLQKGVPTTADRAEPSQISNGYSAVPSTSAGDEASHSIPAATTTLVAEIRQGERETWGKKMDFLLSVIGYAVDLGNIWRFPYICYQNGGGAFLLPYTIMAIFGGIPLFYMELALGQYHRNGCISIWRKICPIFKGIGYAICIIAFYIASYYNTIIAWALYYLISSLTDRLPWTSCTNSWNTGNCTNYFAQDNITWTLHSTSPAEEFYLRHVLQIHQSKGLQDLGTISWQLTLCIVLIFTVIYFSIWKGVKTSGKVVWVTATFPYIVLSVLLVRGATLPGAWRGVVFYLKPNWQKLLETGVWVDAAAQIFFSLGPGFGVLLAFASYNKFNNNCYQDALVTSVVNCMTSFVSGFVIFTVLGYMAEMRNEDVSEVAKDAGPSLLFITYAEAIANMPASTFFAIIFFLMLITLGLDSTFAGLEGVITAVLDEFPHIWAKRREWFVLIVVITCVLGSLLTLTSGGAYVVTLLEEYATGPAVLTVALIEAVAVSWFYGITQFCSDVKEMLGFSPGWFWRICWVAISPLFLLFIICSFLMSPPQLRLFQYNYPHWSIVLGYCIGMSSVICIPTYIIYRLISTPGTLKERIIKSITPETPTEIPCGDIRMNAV

SMILES	Ki [1] [nM]	Ki [nM]
COc1ccccc1N1CCN(CCCN2CCC(Cc3c[nH]c4ccc(F)cc34)CC2)CC1 [Example 3, 5-Fluoro-3-(1-{3-[4-(2-methoxyphenyl)piperazin-1-yl]propyl}piperidin-4-ylmethyl)-1H-indole]	1.2	–
COc1ccccc1N1CCN(CCN2CC=C(c3c[nH]c4ccccc34)CC2)CC1 [Example 6, 3-(1-{2-[4-(2-methoxyphenyl)piperazin-1-yl]ethyl} 1,2,3,6-tetrahydropyridin-4-yl)-1H-indole]	–	10
COc1ccccc1N1CCN(CCN2CC=C(c3c[nH]c4ccc(F)cc34)CC2)CC1 [Example 7, 5-Fluoro-3-(1-{2-[4-(2-methoxyphenyl)piperazin-1-yl]ethyl} 1,2,3,6-tetrahydropyridin-4-yl)-1H-indole]	–	19
COc1ccccc1N1CCN(CCN2CCC(Cc3c[nH]c4ccc(F)cc34)CC2)CC1 [Example 1, 5-Fluoro-3-(1-{2-[4-(2-methoxyphenyl)piperazin-1-yl]ethyl}piperidin-4-ylmethyl)-1H-indole]	4.8	–
